The text below walks through data of patent publication US20060089391A1, “Treatment of cancer in pediatric patients” (priority 2004, published 2006).

As a reminder, the Tmax is the time from dosing to the highest level. One may read the Cmax as the maximum level reached in the sampled fluid or tissue. One may read the Ki as a dissociation constant, usually derived from enzyme kinetics or from competition with a known ligand.

The structures appear in SMILES notation. Read-outs that look alike come from different tables or passages of the source. Where only a bound is given, the exact number is not on record here.

The nature of series [1]: Pharmacokinetic profiles of pediatric patients after oral dosing. The conditions noted are these: for area under the plasma concentration time curve / time of maximum plasma concentration: immediate release composition. The series is classed as in vivo, human.
For another series, the system named is neuroblastoma. Briefly: Clinical response in pediatric patients with neuroblastoma. The series is classed as in vivo, human. From the text:
Patients (n=19) with neuroblastoma have experienced time-to-disease progresson with a median progression free survival (FPS) of 20 weeks.

The target in series [2] is biotinylated bovine brain tubulin. The conditions noted are these: competition of [3H]colchicine.
Setting [3] is: one 75 mg per mm^2 per day oral dose for 21 days.
[4] abbreviates: one 100 mg per mm^2 per day oral dose for 21 days.
The mark [5] stands for this setting: one 130 mg per mm^2 per day oral dose for 21 days.
The mark [6] stands for this setting: one 165 mg per mm^2 per day oral dose for 21 days.
Setting [7] is: one 200 mg per mm^2 per day oral dose for 21 days.
The mark [8] stands for this setting: one 250 mg per mm^2 per day oral dose for 21 days.

In the case of `COc1ccc(S(=O)(=O)Nc2cccnc2Nc2ccc(O)cc2)cc1` [ABT-751, N-(2-((4-hydroxyphenyl)amino)pyrid-3-yl)-4-methoxybenzenesulfonamide], the time of peak concentration (Tmax) in series [1] (250 mg/mm^2/d QD oral) was 2.0 h; in series [1] (human, in vivo, 200 QD oral, mean±SD, read-out: Tmax), 3 ± 1.7 h; in series [1] (human, plasma, 75 QD oral, mean±SD, read-out: Tmax), 2.7 ± 0.6 h; in series [1] (human, plasma, 100 QD oral, mean±SD, read-out: Tmax), 1.9 ± 1 h; in series [1] (human, plasma, 130 QD oral, mean±SD, read-out: Tmax) it was 2.2 ± 0.8 h; in series [1] (human, plasma, 165 QD oral, mean±SD, read-out: Tmax), 3 ± 1.7 h. For the same compound, the Cmax was found to be 8000 ± 1700 ng/mL in series [1] (human, plasma, 75 QD oral, mean±SD); 10600 ± 3000 ng/mL in series [1] (human, plasma, 100 QD oral, mean±SD); 10800 ± 2900 ng/mL in series [1] (human, plasma, 130 QD oral, mean±SD); 13500 ± 4600 ng/mL in series [1] (human, plasma, 165 QD oral, mean±SD); 16900 ± 8100 ng/mL in series [1] (human, plasma, 200 QD oral, mean±SD); 23300 ± 6500 ng/mL in series [1] (human, plasma, 250 QD oral, mean±SD). The “area under the plasma concentration time curve” value in series [1] (setting [3]) came out at 52000 ± 21000 ng·h/mL; in series [1] (setting [4]), 60000 ± 19000 ng·h/mL; in series [1] (setting [5]), 62000 ± 19000 ng·h/mL; in series [1] (setting [6]) it was 90000 ± 27000 ng·h/mL; in series [1] (setting [7]) it was 91000 ± 24000 ng·h/mL; in series [1] (setting [8]) it was 129000 ± 23000 ng·h/mL. In addition, the time of maximum plasma concentration in series [1] (setting [3]) was 2.7 ± 0.6 h; in series [1] (setting [4]), 1.9 ± 1 h; in series [1] (setting [5]), 2.2 ± 0.8 h; in series [1] (setting [6]), 3 ± 1.7 h; in series [1] (setting [7]) it was 3 ± 1.7 h; in series [1] (setting [8]), 2 h. In addition, the “clinical outcome of a single patient” value in the series with neuroblastoma (patient with neuroblastoma, 100 mg/mm^2/d on the daily x7 schedule) is on record as “disease stabilization after 44 cycles”. The “median progression free survival (FPS)” value in the series on neuroblastoma (patients (n=19) with neuroblastoma) turned out to be 20 weeks. In series [2], this compound returned a Ki of 2600 nM.
Compound `CC[C@]1(O)C[C@@H]2CN(CCc3c([nH]c4ccccc34)[C@@](C(=O)OC)(c3cc4c(cc3OC)N(C)[C@H]3[C@@](O)(C(=O)OC)[C@H](OC(C)=O)[C@]5(CC)C=CCN6CC[C@]43[C@@H]65)C2)C1` [vinblastine] displayed an inhibition constant (Ki) in series [2] greater than 100000 nM.
